Converted amounts (≈) assume the structure as drawn. The source made the active and inactive calls. No cut-off for these calls is given here.

What all share (format): functional
Assay [1] has as its system Lipid bilayer. Kind of assay: Induction of negatively charged DOPE/DOPG liposome disruption assessed as percent leakage after <1000 sec by spectrometry.
Assay [2] has as its system Lipid bilayer. Kind of assay: Induction of negatively charged DOPE/DOPG liposome disruption by spectrometry in presence of 150 mM sodium chloride.
The test system of assay [3] is Escherichia coli. As to the kind of experiment: Antibacterial activity against Escherichia coli 37.4 after 1 hr by bactericidal assay.
The test system of assay [4] is Streptococcus pyogenes. Kind of assay: Antibacterial activity against Streptococcus pyogenes AP1 after 1 hr by bactericidal assay.

For `CC[C@H](C)[C@H](NC(=O)[C@H](CCCCN)NC(=O)[C@H](CCC(N)=O)NC(=O)[C@@H](NC(=O)[C@@H](NC(=O)[C@H](CCCCN)NC(=O)[C@H](CCCCN)NC(=O)[C@H](CC(C)C)NC(=O)[C@H](Cc1ccccc1)NC(=O)[C@@H]1CCCN1C(=O)[C@@H](C)N)C(C)C)[C@@H](C)CC)C(=O)N[C@@H](CC(C)C)C(=O)N[C@@H](CC(=O)O)C(=O)N[C@@H](CO)C(=O)NCC(=O)N[C@@H](CC(N)=O)C(=O)N[C@@H](CCCCN)C(=O)N[C@@H](CCCCN)C(=O)N[C@@H](CC(N)=O)C(=O)O`, the Activity in assay [1] was 70%. Moreover, in assay [2], the outcome was Active.

Consider `CC[C@H](C)[C@H](NC(=O)[C@H](CCCCN)NC(=O)[C@H](CCC(N)=O)NC(=O)[C@@H](NC(=O)[C@@H](NC(=O)[C@H](CCCCN)NC(=O)[C@H](CCCCN)NC(=O)[C@H](CC(C)C)NC(=O)[C@H](Cc1ccccc1)NC(=O)[C@@H]1CCCN1C(=O)[C@H](C)N)C(C)C)[C@@H](C)CC)C(=O)N[C@@H](CC(C)C)C(=O)N[C@@H](CC(=O)O)C(=O)N[C@@H](CO)C(=O)NCC(=O)N[C@@H](CC(N)=O)C(=O)N[C@@H](CCCCN)C(=O)N[C@@H](CCCCN)C(=O)N[C@@H](CC(N)=O)C(=O)O`, for which the minimal bactericidal concentration (MBC) in assay [3] was determined as 9.5 µM (≈ 20.3 µg/mL); in assay [3] (Escherichia coli, 37.4, 1 h, read-out: MBC), 5.6 µM (≈ 12 µg/mL); in assay [4], 9.5 µM (≈ 20.3 µg/mL); in assay [4] (Streptococcus pyogenes, AP1, 1 h, read-out: MBC), 5.7 µM (≈ 12.2 µg/mL).

These data come from ChEMBL document CHEMBL1275438, “The human CXC chemokine granulocyte chemotactic protein 2 (GCP-2)/CXCL6 possesses membrane-disrupting properties and is antibacterial” (2008).
